The source of these data is US20240270741A1 (Cogent Biosciences, Inc., priority 2023, published 2024).

The structures appear in SMILES notation.

Experiment [1] addresses FGFR2-WT (Homo sapiens, UniProt P21802). As to the kind of experiment: Phosphorylated FGFR2-WT (pFGFR2-WT) cell assay, KATOIII cells. In kind it is cell-based. The following applies: Table 4. As to the method:
Phosphorylated FGFR2-WT (pFGFR2-WT) Cell Assay:
KATOIII cells were grown in the appropriate growth medium, IMDM supplemented with 20% fetal bovine serum. Cells were seeded into a 384-well at 1×10^5 cells/25 μL/well. Cells were treated with compound using three-fold serial dilutions at final concentrations ranging from 10 μM to 0.5 nM. Compound was incubated on cells for 1 hour at 37° C., 5% CO2.
Following the 1-hour incubation with compounds, cell lysates were prepared and phospho FGFR2 was measured using the HTRF Phospho-FGFR2 (TYR653/654) Detection Kits (CisBio, cat #64FGFR2Y6PEG). 8 μL of cell lysis buffer (4×) supplied with 1× Phospho and Total protein blocking reagent (CisBio, cat #64FGFR2Y6PEG, CisBio, cat #64KB1AAC) was then added to the wells. Cells were incubated with lysis buffer for 40 minutes at 4° C. under shaking conditions. Plates were centrifuged at 1500 rpm for 3 min and then 16 μL of cell lysate was transferred from the cell-culture plate to a small volume detection plate with the added premixed antibody solutions (4 μL) (CisBio, cat #64FGFR2Y6PEG). Plates were centrifuged at 1000 rpm for 1 min then incubated at 25° ° C. for 120 min, then overnight at 4° C. Plates were read on the EnVision multimode plate reader via HTRF dual wavelength detection. One hundred percent of control (POC) was determined using DMSO treated samples, and 0 POC was determined using the top concentration of a control compound. A 4-parameter logistic curve was fit to the POC values as a function of compound concentration to determine the IC50 value.

Experiment [2] concerns the target FGFR2 N549H (Homo sapiens, UniProt P21802, N549H). In words: FGFR mutant enzyme assay (HTRF KinEASE-TK), FGFR2 N549H. In kind it is biochemical. Conditions: Table 4. From the text: (§1) (Catalogue number 62TK0PEC).
Experiment [3] has as its target FGFR2 V564I (Homo sapiens, UniProt P21802, V564I). As to the kind of experiment: FGFR mutant enzyme assay (HTRF KinEASE-TK), FGFR2 V564I. In kind it is biochemical. Conditions: Table 4.
Excerpt: as §1

In experiment [4] the target is FGFR2 (Homo sapiens, UniProt P21802). As to the kind of experiment: FGFR wild type enzyme assay (HTRF KinEASE-TK), FGFR2.
FGFR2, sequence (P21802 399-821 limits assumed): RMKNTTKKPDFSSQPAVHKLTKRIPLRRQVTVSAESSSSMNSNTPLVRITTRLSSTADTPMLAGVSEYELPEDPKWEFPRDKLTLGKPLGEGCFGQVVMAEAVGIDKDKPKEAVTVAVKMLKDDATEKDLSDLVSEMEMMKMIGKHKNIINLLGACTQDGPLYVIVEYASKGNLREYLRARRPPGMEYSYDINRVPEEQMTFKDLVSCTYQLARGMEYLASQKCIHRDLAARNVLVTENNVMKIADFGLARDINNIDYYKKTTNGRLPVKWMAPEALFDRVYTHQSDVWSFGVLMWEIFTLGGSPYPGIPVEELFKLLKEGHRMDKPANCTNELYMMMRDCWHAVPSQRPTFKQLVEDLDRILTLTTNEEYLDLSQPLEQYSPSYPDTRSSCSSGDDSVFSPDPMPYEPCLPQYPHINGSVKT
The target in experiment [5] is FGFR2 V564F (Homo sapiens, UniProt P21802, V564F). As to the kind of experiment: FGFR mutant enzyme assay (HTRF KinEASE-TK), FGFR2 V564F. It counts as biochemical. Conditions: Table 4.
FGFR2 V564F, sequence (P21802 399-821 V564F limits assumed): as the sequence (P21802 399-821 limits assumed) above, with V166F counted along it
Excerpt: as §1

[6] abbreviates: Enz FGFR2 (nM), FGFR2 wild type enzyme.
Where [7] appears, read: Enz FGFR2 (nM), FGFR2 wild type enzyme assay.

FGFR2 N549H, sequence (P21802 399-821 N549H limits assumed): as the sequence (P21802 399-821 limits assumed) above, with N151H counted along it
FGFR2-WT, sequence (P21802 22-821): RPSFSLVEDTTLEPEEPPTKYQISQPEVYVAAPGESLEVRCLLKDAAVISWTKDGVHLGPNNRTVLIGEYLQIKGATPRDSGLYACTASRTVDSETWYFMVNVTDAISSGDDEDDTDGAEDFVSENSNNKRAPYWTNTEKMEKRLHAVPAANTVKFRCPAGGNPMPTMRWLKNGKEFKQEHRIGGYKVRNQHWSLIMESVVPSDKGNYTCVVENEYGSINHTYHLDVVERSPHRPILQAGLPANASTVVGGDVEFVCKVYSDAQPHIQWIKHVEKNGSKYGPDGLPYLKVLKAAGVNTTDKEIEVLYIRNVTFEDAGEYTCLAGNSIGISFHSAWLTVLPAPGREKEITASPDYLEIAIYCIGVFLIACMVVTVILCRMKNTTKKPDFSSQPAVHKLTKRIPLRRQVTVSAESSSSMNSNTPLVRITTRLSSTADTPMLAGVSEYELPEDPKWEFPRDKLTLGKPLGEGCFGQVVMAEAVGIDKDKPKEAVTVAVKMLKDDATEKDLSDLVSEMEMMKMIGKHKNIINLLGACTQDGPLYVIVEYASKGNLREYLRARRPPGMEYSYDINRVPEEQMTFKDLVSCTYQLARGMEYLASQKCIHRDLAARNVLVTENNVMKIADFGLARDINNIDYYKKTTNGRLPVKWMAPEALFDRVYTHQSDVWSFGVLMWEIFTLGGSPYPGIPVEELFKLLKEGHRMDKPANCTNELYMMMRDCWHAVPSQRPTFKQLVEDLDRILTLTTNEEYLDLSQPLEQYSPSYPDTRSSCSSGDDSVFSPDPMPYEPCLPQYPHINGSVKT
FGFR2 V564I, sequence (P21802 399-821 V564I limits assumed): as the sequence (P21802 399-821 limits assumed) above, with V166I counted along it

For `Cc1nc(Sc2cc(-c3cnn(C4CCN(C)CC4)c3C)cn3ncc(C#N)c23)ccc1F` [Example 128], the 50% inhibitory concentration (IC50) in experiment [1] was found to be 41 nM; in experiment [2], 4 nM; in experiment [3], 12 nM; in experiment [4] (Enz FGFR2 (nM)), 5 nM; in experiment [4] (FGFR2 Enz, Table 4), 0.12 nM; in experiment [5] it was 9 nM. `Cc1c(-c2cc(Sc3ncccc3F)c3c(C#N)cnn3c2)cnn1C[C@H]1[C@@H]2CCC[C@@H]21` [Example 235, 6-(1-(((1R,5S,6r)-bicyclo[3.1.0]hexan-6-yl)methyl)-5-methyl-1H-pyrazol-4-yl)-4-((3-fluoropyridin-2-yl)thio)pyrazolo[1,5-a]pyridine-3-carbonitrile] displayed a 50% inhibitory concentration (IC50) in experiment [4] (setting [6]) of 4 nM. For `CN(CC(O)CO)c1ccc(-c2cc(Sc3ccc(F)cc3C#N)c3c(C#N)cnn3c2)cn1` (centres unmarked) [Example 596, 4-((2-cyano-4-fluorophenyl)thio)-6-(6-((2,3-dihydroxypropyl)(methyl)amino)pyridin-3-yl)pyrazolo[1,5-a]pyridine-3-carbonitrile], 1 nM corresponded to half-maximal inhibition in experiment [4] (setting [7]) (IC50). The same measure, in the same setting: the figure for `Cc1c(-c2cc(Sc3ccc(F)cc3C#N)c3c(C#N)cnn3c2)cnn1C1CCN(C[C@H](C)O)CC1` [Example 354, (S)-4-((2-cyano-4-fluorophenyl)thio)-6-(1-(1-(2-hydroxypropyl)piperidin-4-yl)-5-methyl-1H-pyrazol-4-yl)pyrazolo[1,5-a]pyridine-3-carbonitrile] is 2.5 nM; for `Cc1c(-c2cc(Sc3ccc(F)cc3C#N)c3c(C#N)cnn3c2)cnn1[C@@H]1CNC(C)(C)C1` [Example 439, (S)-4-((2-cyano-4-fluorophenyl)thio)-6-(1-(5,5-dimethylpyrrolidin-3-yl)-5-methyl-1H-pyrazol-4-yl)pyrazolo[1,5-a]pyridine-3-carbonitrile] it is 1 nM.

The compound `Cc1c(-c2cc(Sc3ccc(F)cc3C#N)c3c(C#N)cnn3c2)cnn1[C@H]1CC[C@@](C)(N(C)C)CC1` [Example 327, 4-((2-cyano-4-fluorophenyl)thio)-6-(1-((1s,4s)-4-(dimethylamino)-4-methylcyclohexyl)-5-methyl-1H-pyrazol-4-yl)pyrazolo[1,5-a]pyridine-3-carbonitrile] registered a 50% inhibitory concentration (IC50) in experiment [4] (setting [6]) of 0.5 nM. Take `COCc1c(-c2cc(Sc3ccccc3C#N)c3c(C#N)cnn3c2)cnn1C1CCN(C)CC1` [Example 424, 4-((2-cyanophenyl)thio)-6-(5-(methoxymethyl)-1-(1-methylpiperidin-4-yl)-1H-pyrazol-4-yl)pyrazolo[1,5-a]pyridine-3-carbonitrile]: the IC50 in experiment [4] (setting [7]) was found to be 46 nM. Consider `N#Cc1ccccc1Sc1cc(-c2cnn([C@H]3CC[C@@H](O)CC3)c2)cn2ncc(C#N)c12` [Example 294, 4-((2-cyanophenyl)thio)-6-(1-((1s,4s)-4-hydroxycyclohexyl)-1H-pyrazol-4-yl)pyrazolo[1,5-a]pyridine-3-carbonitrile], for which the IC50 in experiment [4] (setting [6]) was 0.5 nM. As for `CC(=O)N[C@H]1CC[C@@H](n2ncc(-c3cc(Sc4nc(N)ccc4F)c4c(C#N)cnn4c3)c2C)CC1` [Example 383, N-((1s,4s)-4-(4-(4-((6-amino-3-fluoropyridin-2-yl)thio)-3-cyanopyrazolo[1,5-a]pyridin-6-yl)-5-methyl-1H-pyrazol-1-yl)cyclohexyl)acetamide], the IC50 in experiment [4] (setting [7]) stood at 1 nM. Still for that read-out and setting: the figure for `N#Cc1ccccc1Sc1cc(-c2ccc(N3CCC(O)CC3)nc2)cn2ncc(C#N)c12` [Example 548, 4-((2-cyanophenyl)thio)-6-(6-(4-hydroxypiperidin-1-yl)pyridin-3-yl)pyrazolo[1,5-a]pyridine-3-carbonitrile] is 0.4 nM.

On to `Cc1c(-c2cc(Sc3ccc(F)cc3C#N)c3c(C#N)cnn3c2)cnn1[C@H]1CC[C@@](C)(N)CC1` [Example 325, 6-(1-((1s,4s)-4-amino-4-methylcyclohexyl)-5-methyl-1H-pyrazol-4-yl)-4-((2-cyano-4-fluorophenyl)thio)pyrazolo [1,5-a]pyridine-3-carbonitrile], for which the concentration for half-maximal inhibition (IC50) in experiment [4] (setting [6]) amounted to 0.5 nM. `N#Cc1cc(F)ccc1Sc1cc(-c2cn([C@H]3CCCNC3)nn2)cn2ncc(C#N)c12` [Example 460, (S)-4-((2-cyano-4-fluorophenyl)thio)-6-(1-(piperidin-3-yl)-1H-1,2,3-triazol-4-yl)pyrazolo[1,5-a]pyridine-3-carbonitrile]: the IC50 in experiment [4] (setting [7]) is 6 nM. On the same count and under the same terms, the figure for `CC(=O)N1CCC[C@H](n2cc(-c3cc(Sc4nc(C)c(F)cc4F)c4c(C#N)cnn4c3)cn2)C1` [Example 630, (S)-6-(1-(1-acetylpiperidin-3-yl)-1H-pyrazol-4-yl)-4-((3,5-difluoro-6-methylpyridin-2-yl)thio)pyrazolo[1,5-a]pyridine-3-carbonitrile] is 1 nM.

In turn, `Cc1ccc(F)c(Sc2cc(-c3cnn(C4CCN(C)CC4)c3C)cn3ncc(C#N)c23)n1` [Example 111, 4-[(3-fluoro-6-methyl-2-pyridyl)sulfanyl]-6-[5-methyl-1-(1-methyl-4-piperidyl)pyrazol-4-yl]pyrazolo[1,5-a]pyridine-3-carbonitrile] came in with a half-maximal inhibitory concentration (IC50) in experiment [4] (Enz FGFR2 (nM)) of 3 nM. Regarding `Cc1c(-c2cc(Sc3ncccc3F)c3c(C#N)cnn3c2)cnn1CC1CCNCC1` [Example 222, 4-((3-fluoropyridin-2-yl)thio)-6-(5-methyl-1-(piperidin-4-ylmethyl)-1H-pyrazol-4-yl)pyrazolo[1,5-a]pyridine-3-carbonitrile], the IC50 in experiment [4] (setting [6]) is 5 nM.

As to `N#Cc1cnn2cc(-c3cn([C@H]4CCCNC4)nc3CO)cc(Sc3ncccc3F)c12` [Example 530, 4-[(3-fluoro-2-pyridyl)sulfanyl]-6-[3-(hydroxymethyl)-1-[(3S)-3-piperidyl]pyrazol-4-yl]pyrazolo[1,5-a]pyridine-3-carbonitrile], in experiment [4] (setting [7]), the half-maximal inhibitory concentration (IC50) amounted to 69 nM.

`N#Cc1ccccc1Sc1cc(-c2cnn(CCC(=O)N3CC[C@H](O)C3)c2)cn2ncc(C#N)c12` [Example 674, (S)-4-((2-cyanophenyl)thio)-6-(1-(3-(3-hydroxypyrrolidin-1-yl)-3-oxopropyl)-1H-pyrazol-4-yl)pyrazolo[1,5-a]pyridine-3-carbonitrile]: in experiment [4] (setting [7]), the IC50 is 1 nM. As for `C[C@@H](O)CN1CC[C@H](n2cc(-c3cc(Sc4ccccc4C#N)c4c(C#N)cnn4c3)cn2)C1` [Example 678, 4-((2-cyanophenyl)thio)-6-(1-((S)-1-((R)-2-hydroxypropyl)pyrrolidin-3-yl)-1H-pyrazol-4-yl)pyrazolo[1,5-a]pyridine-3-carbonitrile], the IC50 in experiment [4] (setting [7]) came to 0.4 nM. On the same count and under the same terms, the figure for `N#Cc1ccccc1Sc1cc(-c2cnn([C@@H]3CCN(CCO)C3)c2)cn2ncc(C#N)c12` [Example 603, (R)-4-((2-cyanophenyl)thio)-6-(1-(1-(2-hydroxyethyl)pyrrolidin-3-yl)-1H-pyrazol-4-yl)pyrazolo[1,5-a]pyridine-3-carbonitrile] is 0.6 nM; for `N#Cc1cnn2cc(-c3cnn([C@H]4CCCNC4)n3)cc(Sc3ncccc3F)c12` [Example 457, 4-[(3-fluoro-2-pyridyl)sulfanyl]-6-[2-[(3S)-3-piperidyl]triazol-4-yl]pyrazolo[1,5-a]pyridine-3-carbonitrile] it is 13 nM. Take `Cc1c(-c2cc(Sc3cc(F)ccc3C#N)c3c(C#N)cnn3c2)cnn1C1CCN(C)CC1` [Example 359, 4-((2-cyano-5-fluorophenyl)thio)-6-(5-methyl-1-(1-methylpiperidin-4-yl)-1H-pyrazol-4-yl)pyrazolo[1,5-a]pyridine-3-carbonitrile]: in experiment [4] (setting [7]), half-maximal inhibition (IC50) required 1.5 nM. On the same count and under the same terms, for `Cc1c(-c2cc(Sc3ccc(F)cc3C#N)c3c(C#N)cnn3c2)cnn1C1CCN([C@@H](C)CO)CC1` [Example 380, (S)-4-((2-cyano-4-fluorophenyl)thio)-6-(1-(1-(1-hydroxypropan-2-yl)piperidin-4-yl)-5-methyl-1H-pyrazol-4-yl)pyrazolo[1,5-a]pyridine-3-carbonitrile] the value was 1 nM. In experiment [4] (setting [6]), `Cc1c(-c2cc(Sc3ccccc3C#N)c3c(C#N)cnn3c2)cnn1C1CCN(CC(=O)N(C)C)CC1` [Example 266, 2-(4-(4-(3-cyano-4-((2-cyanophenyl)thio)pyrazolo [1,5-a]pyridin-6-yl)-5-methyl-1H-pyrazol-1-yl)piperidin-1-yl)-N,N-dimethylacetamide] had a half-maximal inhibitory concentration (IC50) of 0.5 nM. Still for that read-out and setting: the figure for `Cc1c(-c2cc(Sc3ncccc3F)c3c(C#N)cnn3c2)cnn1C1CCN(C[C@H](C)O)CC1` [Example 144, (S)-4-((3-fluoropyridin-2-yl)thio)-6-(1-(1-(2-hydroxypropyl)piperidin-4-yl)-5-methyl-1H-pyrazol-4-yl)pyrazolo[1,5-a]pyridine-3-carbonitrile] is 1.5 nM.
